Test results from ChEMBL document CHEMBL5576067, “Synthesis and biological evaluation of novel 1,2,3,4-tetrahydro-β-carboline derivatives as potential antibacterial agents” (Bioorg Med Chem Lett, 2024).
In brackets after ≈: the same amount, converted by molar mass.

What was measured:
Type in all cases: functional
Staphylococcus aureus [1] = test: Antibacterial activity against methicillin resistant Staphylococcus aureus ATCC33591 assessed as inhibition of bacterial growth incubated for 24 hrs by broth microdilution method
Enterococcus faecium = test: Antibacterial activity against vancomycin-resistant Enterococcus faecium ATCC 700221 assessed as inhibition of bacterial growth incubated for 24 hrs by broth microdilution method
Staphylococcus aureus [2] = test: Antibacterial activity against Staphylococcus aureus ATCC25923 assessed as inhibition of bacterial growth incubated for 24 hrs by broth microdilution method
Ralstonia solanacearum = test: Antibacterial activity against Ralstonia solanacearum assessed as inhibition of bacterial growth incubated for 24 hrs by broth microdilution method
[3] = (§1) Antibacterial activity against Pseudomonas syringae pv. actinidiae assessed as inhibition of bacterial growth incubated for 24 hrs by broth microdilution method
Escherichia coli = test: Antibacterial activity against Escherichia coli ATCC25922 assessed as inhibition of bacterial growth incubated for 24 hrs by broth microdilution method
Staphylococcus aureus [4] = test: Ratio of MBC to MIC for Staphylococcus aureus ATCC25923
Staphylococcus aureus [5] = test: Bactericidal activity against methicillin resistant Staphylococcus aureus ATCC33591 assessed as inhibition of bacterial growth incubated for 24 hrs by resazurin dye based analysis
Staphylococcus aureus [6] = test: Bactericidal activity against Staphylococcus aureus ATCC25923 assessed as inhibition of bacterial growth incubated for 24 hrs by resazurin dye based analysis
[7] = tested on: Pseudomonas syringae pv. actinidiae; test: as §1

Question: What does the source list for `Cc1ccccc1C(=O)Nc1ccc(C2c3[nH]c4ccccc4c3CCN2C)cc1` (configuration not stated)?
Answer: MIC (Staphylococcus aureus [1]): 32 µg/mL (≈ 80.9 µM); MIC (Enterococcus faecium): > 128 µg/mL; MIC (Staphylococcus aureus [2]): 64 µg/mL (≈ 162 µM); MIC (Ralstonia solanacearum): 128 µg/mL (≈ 324 µM); MIC [3]: 64 µg/mL (≈ 162 µM); MIC (Escherichia coli): 64 µg/mL (≈ 162 µM)

Question: For `CN1CCc2c([nH]c3ccccc23)C1c1ccc(NC(=O)c2ccc([N+](=O)[O-])cc2)cc1` (configuration not stated), which MIC (Staphylococcus aureus [1]) is on record?
Answer: 16 µg/mL (≈ 37.5 µM)

Question: And the MIC (Enterococcus faecium)?
Answer: > 128 µg/mL

Question: What about the MIC (Staphylococcus aureus [2]) of the same molecule?
Answer: 32 µg/mL (≈ 75 µM)

Question: And the MIC (Ralstonia solanacearum)?
Answer: 32 µg/mL (≈ 75 µM)

Question: What about the MIC [3] of the same molecule?
Answer: 32 µg/mL (≈ 75 µM)

Question: And the MIC (Escherichia coli)?
Answer: 32 µg/mL (≈ 75 µM)

Question: Which MIC (Staphylococcus aureus [1]) does the source give for `CN1CCc2c([nH]c3ccccc23)C1c1ccc(NC(=O)c2cccc(Cl)c2)cc1` (configuration not stated) here?
Answer: 8 µg/mL (≈ 19.2 µM)

Question: What about the MIC (Enterococcus faecium) of the same molecule?
Answer: > 128 µg/mL

Question: What about the MIC (Staphylococcus aureus [2]) of the same molecule?
Answer: 16 µg/mL (≈ 38.5 µM)

Question: What about the MIC (Ralstonia solanacearum) of the same molecule?
Answer: 16 µg/mL (≈ 38.5 µM)

Question: And the MIC [3]?
Answer: 64 µg/mL (≈ 154 µM)

Question: What about the MIC (Escherichia coli) of the same molecule?
Answer: 16 µg/mL (≈ 38.5 µM)

Question: For `CN1CCc2c([nH]c3ccccc23)C1c1ccc(NC(=O)c2ccc(F)cc2)cc1` (configuration not stated), which MIC (Staphylococcus aureus [1]) is on record?
Answer: 8 µg/mL (≈ 20 µM)

Question: What about the MIC (Enterococcus faecium) of the same molecule?
Answer: > 128 µg/mL

Question: What about the MIC (Staphylococcus aureus [2]) of the same molecule?
Answer: 4 µg/mL (≈ 10 µM)

Question: What about the MIC (Ralstonia solanacearum) of the same molecule?
Answer: 16 µg/mL (≈ 40.1 µM)

Question: What about the MIC [3] of the same molecule?
Answer: 128 µg/mL (≈ 320 µM)

Question: What about the MIC (Escherichia coli) of the same molecule?
Answer: 16 µg/mL (≈ 40.1 µM)

Question: What does the source list for `CN1CCc2c([nH]c3ccccc23)C1c1ccc(NC(=O)c2cccc([N+](=O)[O-])c2)cc1` (configuration not stated)?
Answer: MIC (Staphylococcus aureus [1]): 64 µg/mL (≈ 150 µM); MIC (Enterococcus faecium): > 128 µg/mL; MIC (Staphylococcus aureus [2]): 64 µg/mL (≈ 150 µM); MIC (Ralstonia solanacearum): 64 µg/mL (≈ 150 µM); MIC [3]: > 128 µg/mL; MIC (Escherichia coli): 64 µg/mL (≈ 150 µM)

Question: With `O=C(Nc1ccc(C2NCCc3c2[nH]c2ccccc32)cc1)c1cccc(Cl)c1` (configuration not stated) as the molecule, how does the MIC (Staphylococcus aureus [1]) read?
Answer: 8 µg/mL (≈ 19.9 µM)

Question: What about the MIC (Enterococcus faecium) of the same molecule?
Answer: > 128 µg/mL

Question: And the MIC (Staphylococcus aureus [2])?
Answer: 16 µg/mL (≈ 39.8 µM)

Question: And the MIC (Ralstonia solanacearum)?
Answer: 8 µg/mL (≈ 19.9 µM)

Question: What about the MIC [3] of the same molecule?
Answer: 64 µg/mL (≈ 159 µM)

Question: And the MIC (Escherichia coli)?
Answer: 8 µg/mL (≈ 19.9 µM)

Question: Which results are given for `O=C(Nc1ccc(C2NCCc3c2[nH]c2ccccc32)cc1)c1ccc([N+](=O)[O-])cc1` (configuration not stated)?
Answer: MIC (Staphylococcus aureus [1]): 4 µg/mL (≈ 9.7 µM); MIC (Enterococcus faecium): > 128 µg/mL; MIC (Staphylococcus aureus [2]): 8 µg/mL (≈ 19.4 µM); MIC (Ralstonia solanacearum): 8 µg/mL (≈ 19.4 µM); MIC [3]: 32 µg/mL (≈ 77.6 µM); MIC (Escherichia coli): 8 µg/mL (≈ 19.4 µM)

Question: With `Cc1ccccc1C(=O)Nc1ccc(C2NCCc3c2[nH]c2ccccc32)cc1` (configuration not stated) as the molecule, how does the MIC (Staphylococcus aureus [1]) read?
Answer: 32 µg/mL (≈ 83.9 µM)

Question: And the MIC (Enterococcus faecium)?
Answer: > 128 µg/mL

Question: And the MIC (Staphylococcus aureus [2])?
Answer: 32 µg/mL (≈ 83.9 µM)

Question: And the MIC (Ralstonia solanacearum)?
Answer: 128 µg/mL (≈ 336 µM)

Question: And the MIC [3]?
Answer: 128 µg/mL (≈ 336 µM)

Question: What about the MIC (Escherichia coli) of the same molecule?
Answer: 64 µg/mL (≈ 168 µM)

Question: For `O=C(Nc1ccc(C2NCCc3c2[nH]c2ccccc32)cc1)c1cc(C(F)(F)F)cc(C(F)(F)F)c1` (configuration not stated), which MIC (Staphylococcus aureus [1]) is on record?
Answer: 16 µg/mL (≈ 31.8 µM)

Question: What about the MIC (Enterococcus faecium) of the same molecule?
Answer: > 128 µg/mL

Question: And the MIC (Staphylococcus aureus [2])?
Answer: 16 µg/mL (≈ 31.8 µM)

Question: What about the MIC (Ralstonia solanacearum) of the same molecule?
Answer: 128 µg/mL (≈ 254 µM)

Question: And the MIC [3]?
Answer: 64 µg/mL (≈ 127 µM)

Question: What about the MIC (Escherichia coli) of the same molecule?
Answer: 128 µg/mL (≈ 254 µM)

Question: Which results are given for `CN1CCc2c([nH]c3ccccc23)C1c1ccc(NC(=O)c2ccc(Br)cc2)cc1` (configuration not stated)?
Answer: MIC (Staphylococcus aureus [1]): 32 µg/mL (≈ 69.5 µM); MIC (Enterococcus faecium): > 128 µg/mL; MIC (Staphylococcus aureus [2]): 32 µg/mL (≈ 69.5 µM); MIC (Ralstonia solanacearum): 32 µg/mL (≈ 69.5 µM); MIC [3]: 64 µg/mL (≈ 139 µM); MIC (Escherichia coli): 32 µg/mL (≈ 69.5 µM)

Question: What does the source list for `COC(=O)c1ccc(C(=O)Nc2ccc(C3c4[nH]c5ccccc5c4CCN3C)cc2)cc1` (configuration not stated)?
Answer: MIC (Staphylococcus aureus [1]): 32 µg/mL (≈ 72.8 µM); MIC (Enterococcus faecium): > 128 µg/mL; MIC (Staphylococcus aureus [2]): 64 µg/mL (≈ 146 µM); MIC (Ralstonia solanacearum): 128 µg/mL (≈ 291 µM); MIC [3]: 32 µg/mL (≈ 72.8 µM); MIC (Escherichia coli): 128 µg/mL (≈ 291 µM)

Question: Which MIC (Staphylococcus aureus [1]) does the source give for `CN1CCc2c([nH]c3ccccc23)C1c1ccc(NC(=O)c2cccc(F)c2)cc1` (configuration not stated) here?
Answer: 4 µg/mL (≈ 10 µM)

Question: And the MIC (Enterococcus faecium)?
Answer: > 128 µg/mL

Question: What about the MIC (Staphylococcus aureus [2]) of the same molecule?
Answer: 32 µg/mL (≈ 80.1 µM)

Question: What about the MIC (Ralstonia solanacearum) of the same molecule?
Answer: 16 µg/mL (≈ 40.1 µM)

Question: What about the MIC [3] of the same molecule?
Answer: 16 µg/mL (≈ 40.1 µM)

Question: And the MIC (Escherichia coli)?
Answer: 16 µg/mL (≈ 40.1 µM)

Question: For `O=C(Nc1ccc(C2NCCc3c2[nH]c2ccccc32)cc1)c1ccc(Cl)cc1` (configuration not stated), which MIC (Staphylococcus aureus [1]) is on record?
Answer: 8 µg/mL (≈ 19.9 µM)

Question: What about the MIC (Enterococcus faecium) of the same molecule?
Answer: > 128 µg/mL

Question: And the MIC (Staphylococcus aureus [2])?
Answer: 4 µg/mL (≈ 9.95 µM)

Question: What about the MIC (Ralstonia solanacearum) of the same molecule?
Answer: 8 µg/mL (≈ 19.9 µM)

Question: What about the Ratio (Staphylococcus aureus [4]) of the same molecule?
Answer: 1

Question: What about the MBC (Staphylococcus aureus [5]) of the same molecule?
Answer: 16 µg/mL (≈ 39.8 µM)

Question: And the MBC (Staphylococcus aureus [6])?
Answer: 32 µg/mL (≈ 79.6 µM)

Question: What about the MIC [3] of the same molecule?
Answer: 128 µg/mL (≈ 318 µM)

Question: What about the MIC (Escherichia coli) of the same molecule?
Answer: 16 µg/mL (≈ 39.8 µM)

Question: Which MIC (Staphylococcus aureus [1]) does the source give for GENTAMICIN here?
Answer: > 128 µg/mL

Question: And the MIC (Enterococcus faecium)?
Answer: > 128 µg/mL

Question: And the MIC (Staphylococcus aureus [2])?
Answer: 4 µg/mL

Question: And the MIC (Ralstonia solanacearum)?
Answer: 16 µg/mL

Question: And the MBC (Staphylococcus aureus [5])?
Answer: > 128 µg/mL

Question: And the MBC (Staphylococcus aureus [6])?
Answer: 8 µg/mL

Question: And the MIC [7]?
Answer: 8 µg/mL

Question: What about the MIC (Escherichia coli) of the same molecule?
Answer: 4 µg/mL

Question: For `Cc1cccc(C(=O)Nc2ccc(C3NCCc4c3[nH]c3ccccc43)cc2)c1` (configuration not stated), which MIC (Staphylococcus aureus [1]) is on record?
Answer: 64 µg/mL (≈ 168 µM)

Question: What about the MIC (Enterococcus faecium) of the same molecule?
Answer: > 128 µg/mL

Question: What about the MIC (Staphylococcus aureus [2]) of the same molecule?
Answer: 32 µg/mL (≈ 83.9 µM)

Question: What about the MIC (Ralstonia solanacearum) of the same molecule?
Answer: 32 µg/mL (≈ 83.9 µM)

Question: And the MIC [3]?
Answer: 32 µg/mL (≈ 83.9 µM)

Question: And the MIC (Escherichia coli)?
Answer: 32 µg/mL (≈ 83.9 µM)

Question: What does the source list for `O=C(Nc1ccc(C2NCCc3c2[nH]c2ccccc32)cc1)c1ccccc1F` (configuration not stated)?
Answer: MIC (Staphylococcus aureus [1]): 32 µg/mL (≈ 83 µM); MIC (Enterococcus faecium): > 128 µg/mL; MIC (Staphylococcus aureus [2]): 32 µg/mL (≈ 83 µM); MIC (Ralstonia solanacearum): 128 µg/mL (≈ 332 µM); MIC [3]: 64 µg/mL (≈ 166 µM); MIC (Escherichia coli): 64 µg/mL (≈ 166 µM)

Question: With `CN1CCc2c([nH]c3ccccc23)C1c1ccc(NC(=O)c2ccccc2)cc1` (configuration not stated) as the molecule, how does the MIC (Staphylococcus aureus [1]) read?
Answer: 128 µg/mL (≈ 336 µM)

Question: And the MIC (Enterococcus faecium)?
Answer: > 128 µg/mL

Question: What about the MIC (Staphylococcus aureus [2]) of the same molecule?
Answer: 128 µg/mL (≈ 336 µM)

Question: What about the MIC (Ralstonia solanacearum) of the same molecule?
Answer: 128 µg/mL (≈ 336 µM)

Question: What about the MIC [3] of the same molecule?
Answer: 64 µg/mL (≈ 168 µM)

Question: What about the MIC (Escherichia coli) of the same molecule?
Answer: 128 µg/mL (≈ 336 µM)
